Assay results reported in ChEMBL document CHEMBL2429721, “Novel 2,6-bis(4-methoxyphenyl)-1-methylpiperidin-4-one oxime esters: synthesis and a new insight into their antioxidant and antimicrobial potential” (Med Chem Res, 2013).

Experiments:
Format in all cases: functional
[1] = system: Radical scavenging activity; test: Antioxidant activity assessed as DPPH free radical scavenging activity after 20 mins by UV-visible spectrophotometric analysis
[2] = system: Pseudomonas aeruginosa; test: Antibacterial activity against Pseudomonas aeruginosa ATCC 27853 assessed as growth inhibition at 1000 ug/mL after 24 hrs by agar well plate method; details: ATCC 27853, 24 h, read-out: DIZ
[3] = system: Escherichia coli; test: Antibacterial activity against Escherichia coli ATCC 25922 assessed as growth inhibition at 500 ug/mL after 24 hrs by agar well plate method; details: ATCC 25922, 24 h, read-out: DIZ
[4] = Antifungal activity against Chrysosporium keratinophilum MTCC 2827 assessed as growth inhibition at 500 ug/mL after 72 hrs by agar well plate method
[5] = Antioxidant activity assessed as ABTS free radical scavenging activity after 30 mins
[6] = system: Pseudomonas aeruginosa; test: Antibacterial activity against Pseudomonas aeruginosa ATCC 27853 assessed as growth inhibition at 500 ug/mL after 24 hrs by agar well plate method; details: ATCC 27853, 24 h, read-out: DIZ
[7] = system: Aspergillus flavus; test: Antifungal activity against Aspergillus flavus MTCC 3306 assessed as growth inhibition at 1000 ug/mL after 72 hrs by agar well plate method; details: MTCC 3306, 72 h, read-out: DIZ
[8] = system: Staphylococcus aureus; test: Antibacterial activity against Staphylococcus aureus ATCC 25923 assessed as growth inhibition at 1000 ug/mL after 24 hrs by agar well plate method; details: ATCC 25923, 24 h, read-out: DIZ
[9] = Antifungal activity against Chrysosporium keratinophilum MTCC 2827 assessed as growth inhibition at 1000 ug/mL after 72 hrs by agar well plate method
[10] = Antioxidant activity assessed as ferric ion reducing activity at 10 uM after 20 mins by FRAP assay
[11] = system: Escherichia coli; test: Antibacterial activity against Escherichia coli ATCC 25922 assessed as growth inhibition at 1000 ug/mL after 24 hrs by agar well plate method; details: ATCC 25922, 24 h, read-out: DIZ
[12] = system: Candida albicans; test: Antifungal activity against Candida albicans MTCC 3017 assessed as growth inhibition at 500 ug/mL after 72 hrs by agar well plate method; details: MTCC 3017, 72 h, read-out: DIZ
[13] = system: Candida albicans; test: Antifungal activity against Candida albicans MTCC 3017 assessed as growth inhibition at 1000 ug/mL after 72 hrs by agar well plate method; details: MTCC 3017, 72 h, read-out: DIZ
[14] = Antioxidant activity assessed as cupric ion reducing activity at 10 uM after 30 mins by CUPRAC assay
[15] = system: Aspergillus flavus; test: Antifungal activity against Aspergillus flavus MTCC 3306 assessed as growth inhibition at 500 ug/mL after 72 hrs by agar well plate method; details: MTCC 3306, 72 h, read-out: DIZ
[16] = system: Staphylococcus aureus; test: Antibacterial activity against Staphylococcus aureus ATCC 25923 assessed as growth inhibition at 500 ug/mL after 24 hrs by agar well plate method; details: ATCC 25923, 24 h, read-out: DIZ

SMILES | IC50 [1] [µM] | IC50 [5] [µM] | zone of inhibition at 1000 µg/mL [2] [mm] | zone of inhibition at 500 µg/mL [3] [mm] | inhibition zone (IZ) [4] [mm] | zone of inhibition at 500 µg/mL [6] [mm] | zone of inhibition at 1000 µg/mL [7] [mm] | zone of inhibition at 1000 µg/mL [8] [mm] | inhibition zone (IZ) [9] [mm] | Activity [10] | zone of inhibition at 1000 µg/mL [11] [mm] | zone of inhibition at 500 µg/mL [12] [mm] | zone of inhibition at 1000 µg/mL [13] [mm] | Activity [14] | zone of inhibition at 500 µg/mL [15] [mm] | zone of inhibition at 500 µg/mL [16] [mm]
COc1ccc(C2CC(=NOC(=O)c3ccc([N+](=O)[O-])cc3)CC(c3ccc(OC)cc3)N2C)cc1 (stereo not given) | 120 | 280 | 8 | 3 | 3 | 5 | 3 | 7 | 4 | 0.216 | 7 | 7 | 6 | 0.157 | 2 | 3
COc1ccc(C2CC(=NOC(=O)c3ccc(O)cc3)CC(c3ccc(OC)cc3)N2C)cc1 (stereo not given) | 15 | 25 | 3 | 3 | 1 | 2 | 0 | 5 | 2 | 0.333 | 4 | 2 | 2 | 0.293 | 1 | 3
COc1ccc(C2CC(=NOC(=O)c3cc(O)c(O)c(O)c3)CC(c3ccc(OC)cc3)N2C)cc1 (stereo not given) | 11 | 18 | 4 | 4 | 2 | 3 | 3 | 5 | 3 | 0.373 | 6 | 6 | 8 | 0.361 | 1 | 3

Continued, in another order:

IC50 [1] [µM] | IC50 [5] [µM] | SMILES | zone of inhibition at 1000 µg/mL [2] [mm] | zone of inhibition at 500 µg/mL [3] [mm] | inhibition zone (IZ) [4] [mm] | zone of inhibition at 500 µg/mL [6] [mm] | zone of inhibition at 1000 µg/mL [7] [mm] | zone of inhibition at 1000 µg/mL [8] [mm] | inhibition zone (IZ) [9] [mm] | Activity [10] | zone of inhibition at 1000 µg/mL [11] [mm] | zone of inhibition at 500 µg/mL [12] [mm] | zone of inhibition at 1000 µg/mL [13] [mm] | Activity [14] | zone of inhibition at 500 µg/mL [15] [mm] | zone of inhibition at 500 µg/mL [16] [mm]
165 | 380 | COc1ccc(C2CC(=NO)CC(c3ccc(OC)cc3)N2C)cc1 (stereo not given) | 1 | 0 | 1 | 0 | 1 | 1 | 1 | 0.127 | 1 | 1 | 1 | 0.164 | 0 | 0
186 | 136 | COc1ccc(C2CC(=NOC(=O)c3cccc(Cl)c3)CC(c3ccc(OC)cc3)N2C)cc1 (stereo not given) | 11 | 7 | 5 | 8 | 7 | 9 | 7 | 0.243 | 12 | 7 | 10 | 0.179 | 6 | 7
